{"source": "ChEMBL document CHEMBL1201862", "about": "“PubChem BioAssay data set” (2004)", "assay_in_all_cases": "growth of human tumour cells (NCI), 48 h", "key": {"HCC 2998": {"system": "HCC 2998"}, "NCI-H226": {"system": "NCI-H226"}, "CCRF-CEM": {"system": "CCRF-CEM"}, "RPMI-8226": {"system": "RPMI-8226"}, "OVCAR-4": {"system": "OVCAR-4"}, "SK-OV-3": {"system": "SK-OV-3"}, "SK-MEL-5": {"system": "SK-MEL-5"}, "MDA-MB-435": {"system": "MDA-MB-435"}, "K562": {"system": "K562"}, "UACC-257": {"system": "UACC-257"}, "HOP-92": {"system": "HOP-92"}, "786-0": {"system": "786-0"}, "RXF 393": {"system": "RXF 393"}, "A498": {"system": "A498"}, "NCI/ADR-RES": {"system": "NCI/ADR-RES"}, "SK-MEL-28": {"system": "SK-MEL-28"}, "HCT-15": {"system": "HCT-15"}, "BT-549": {"system": "BT-549"}, "COLO 205": {"system": "COLO 205"}, "OVCAR-8": {"system": "OVCAR-8"}, "PC-3": {"system": "PC-3"}, "SK-MEL-2": {"system": "SK-MEL-2"}, "MDA-N": {"system": "MDA-N"}, "EKVX": {"system": "EKVX"}, "DU-145": {"system": "DU-145"}, "MCF7": {"system": "MCF7"}, "MDA-MB-231": {"system": "MDA-MB-231"}, "IGROV-1": {"system": "IGROV-1"}, "Malme-3M": {"system": "Malme-3M"}, "SF-539": {"system": "SF-539"}, "NCI-H23": {"system": "NCI-H23"}, "NCI-H522": {"system": "NCI-H522"}, "OVCAR-3": {"system": "OVCAR-3"}, "HCT-116": {"system": "HCT-116"}, "HL-60": {"system": "HL-60"}, "M14": {"system": "M14"}, "KM12": {"system": "KM12"}, "OVCAR-5": {"system": "OVCAR-5"}, "SN12C": {"system": "SN12C"}, "A549": {"system": "A549"}, "SNB-19": {"system": "SNB-19"}, "UO-31": {"system": "UO-31"}, "ACHN": {"system": "ACHN"}, "SF-295": {"system": "SF-295"}, "NCI-H460": {"system": "NCI-H460"}, "UACC-62": {"system": "UACC-62"}, "SW-620": {"system": "SW-620"}, "LOX IMVI": {"system": "LOX IMVI"}, "TK-10": {"system": "TK-10"}, "CAKI-1": {"system": "CAKI-1"}, "U-251": {"system": "U-251"}, "SNB-75": {"system": "SNB-75"}}, "note": "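Following 48 hours of exposure in 96-well plates, responses at five concentrations were used to interpolate endpoints linearly. The concentration for 50% growth inhibition is given as GI50.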 Activity calls are given as the source filed them. No stated cut-off is given here; in the data, active = GI50 up to about 1.1 µM and inactive = higher."}
{"smiles": "CCOC(=O)C1=CN=C2C(=O)N(c3ccccc3)N(C)C2(C)C1=N", "note": "(configuration not stated)", "values": [{"measurement": "GI50", "setting": "HCC 2998", "result": "> 100 µM (inactive)"}, {"measurement": "GI50", "setting": "NCI-H226", "result": "> 100 µM (inactive)"}, {"measurement": "GI50", "setting": "CCRF-CEM", "result": "> 100 µM (inactive)"}, {"measurement": "GI50", "setting": "RPMI-8226", "result": "> 100 µM (inactive)"}, {"measurement": "GI50", "setting": "OVCAR-4", "result": "> 100 µM (inactive)"}, {"measurement": "GI50", "setting": "SK-OV-3", "result": "> 100 µM (inactive)"}, {"measurement": "GI50", "setting": "SK-MEL-5", "result": "> 100 µM (inactive)"}, {"measurement": "GI50", "setting": "MDA-MB-435", "result": "> 100 µM (inactive)"}, {"measurement": "GI50", "setting": "K562", "result": "> 100 µM (inactive)"}, {"measurement": "GI50", "setting": "UACC-257", "result": "> 100 µM (inactive)"}, {"measurement": "GI50", "setting": "HOP-92", "result": "> 100 µM (inactive)"}, {"measurement": "GI50", "setting": "786-0", "result": "> 100 µM (inactive)"}, {"measurement": "GI50", "setting": "RXF 393", "result": "> 100 µM (inactive)"}, {"measurement": "GI50", "setting": "A498", "result": "> 100 µM (inactive)"}, {"measurement": "GI50", "setting": "NCI/ADR-RES", "result": "> 100 µM (inactive)"}, {"measurement": "GI50", "setting": "SK-MEL-28", "result": "> 100 µM (inactive)"}, {"measurement": "GI50", "setting": "HCT-15", "result": "> 100", "unit": "µM"}, {"measurement": "GI50", "setting": "BT-549", "result": "> 100 µM (inactive)"}, {"measurement": "GI50", "setting": "COLO 205", "result": "> 100 µM (inactive)"}, {"measurement": "GI50", "setting": "OVCAR-8", "result": "> 100 µM (inactive)"}, {"measurement": "GI50", "setting": "PC-3", "result": "> 100 µM (inactive)"}, {"measurement": "GI50", "setting": "SK-MEL-2", "result": "> 100 µM (inactive)"}, {"measurement": "GI50", "setting": "MDA-N", "result": "> 100 µM (inactive)"}, {"measurement": "GI50", "setting": "EKVX", "result": "> 100 µM (inactive)"}, {"measurement": "GI50", "setting": "DU-145", "result": "> 100 µM (inactive)"}, {"measurement": "GI50", "setting": "MCF7", "result": "> 100 µM (inactive)"}, {"measurement": "GI50", "setting": "MDA-MB-231", "result": "> 100 µM (inactive)"}, {"measurement": "GI50", "setting": "IGROV-1", "result": "> 100 µM (inactive)"}, {"measurement": "GI50", "setting": "Malme-3M", "result": "> 100 µM (inactive)"}, {"measurement": "GI50", "setting": "SF-539", "result": "> 100 µM (inactive)"}, {"measurement": "GI50", "setting": "NCI-H23", "result": "> 100 µM (inactive)"}, {"measurement": "GI50", "setting": "NCI-H522", "result": "> 100 µM (inactive)"}, {"measurement": "GI50", "setting": "OVCAR-3", "result": "> 100 µM (inactive)"}, {"measurement": "GI50", "setting": "HCT-116", "result": "> 100 µM (inactive)"}, {"measurement": "GI50", "setting": "HL-60", "result": "> 100 µM (inactive)"}, {"measurement": "GI50", "setting": "M14", "result": "> 100 µM (inactive)"}, {"measurement": "GI50", "setting": "KM12", "result": "> 100 µM (inactive)"}, {"measurement": "GI50", "setting": "OVCAR-5", "result": "> 100 µM (inactive)"}, {"measurement": "GI50", "setting": "SN12C", "result": "> 100 µM (inactive)"}, {"measurement": "GI50", "setting": "A549", "result": "> 100 µM (inactive)"}, {"measurement": "GI50", "setting": "SNB-19", "result": "> 100 µM (inactive)"}, {"measurement": "GI50", "setting": "UO-31", "result": "> 100 µM (inactive)"}, {"measurement": "GI50", "setting": "ACHN", "result": "> 100 µM (inactive)"}, {"measurement": "GI50", "setting": "SF-295", "result": "> 100 µM (inactive)"}, {"measurement": "GI50", "setting": "NCI-H460", "result": "> 100 µM (inactive)"}, {"measurement": "GI50", "setting": "UACC-62", "result": "> 100 µM (inactive)"}, {"measurement": "GI50", "setting": "SW-620", "result": "> 100 µM (inactive)"}, {"measurement": "GI50", "setting": "LOX IMVI", "result": "> 100 µM (inactive)"}, {"measurement": "GI50", "setting": "TK-10", "result": "> 100 µM (inactive)"}, {"measurement": "GI50", "setting": "CAKI-1", "result": "> 100 µM (inactive)"}, {"measurement": "GI50", "setting": "U-251", "result": "> 100 µM (inactive)"}, {"measurement": "GI50", "setting": "SNB-75", "result": "> 100 µM (inactive)"}]}
